# No end group written: not given here.
# Tests used:
# Human recombinant CD4 = Human recombinant CD4 (Homo sapiens, UniProt P01730); test: Polymerization of human recombinant CD4 (non-reducing PAGE); format: biochemical; design: key: The Table indicates whether or not a polymerization had occurred (+); settings: 50 μM peptide, 300 ng recCD4, Hepes buffer, 15 minutes at 68° C.
# Description: Fifty μM of DTT is used as a positive control under the same conditions. LDS sample buffer (7.5 μl; non-reducing) is then added to 15 μl of the peptide/CD4 mixture. The mixture is then submitted to non-reducing PAGE. After Coomassie Blue staining, protein bands are analyzed for the presence of monomeric, dimeric or multimeric recCD4, as identified by the decreased migratory capacities into the gel. The Table indicates whether or not a polymerization had occurred (+).
# [1] = Evaluation of reductase activity on a synthetic peptide (fluorescence de-quenching); format: biochemical; settings: peptide 25 μM, 2.5 μM (FITC-Gly-Cys-Asp)ox, PBS, 40 minutes, 25° C., fluorescence 530 nm
# Description: The reductase activity of the peptides is determined using a fluorescent described in Tomazzolli et al. (2006) Anal. Biochem. 350, 105-112. Two peptides with a FITC label become self-quenching when they covalently attached to each other via a disulfide bridge. Upon reduction by a peptide in accordance with the present invention, the reduced individual peptides become fluorescent again.
# Control experiments were performed with a peptide with a “normal” reducing peptide, i.e. a peptide with a redox motif but without additional histidine and with a peptide comprising no redox motif.
# A FITC -NH-Gly-Cys-Asp-COOH peptide was synthesized (Eurogentec, Belgium) and self-quenched by solubilization in DMSO ((FITC-Gly-Cys-Asp)ox). The reduction of 2.5 μM (FITC-Gly-Cys-Asp)ox was followed on a 96 well plate during 40 minutes (25° C.) after incubation in PBS with peptide (25 μM) as listed in the accompanying table, or with 2 mM Dithiothreitol (DTT). Reduction was measured as a function of increase in fluorescence read at 530 nm after excitation at 494 nm, using a CytoFluor® multiplate reader (Applied Biosystems). Results are shown in the table of example 10 under the heading “Reductase activity”.
# [2] = system: polyclonal CD4+CD25− cells obtained from animals in which EAE is effective; test: Bystander suppression assay with T cell line from immunised mice; format: cell-based, C57BL/6 mice; settings: CD4+ T cell line from mice immunised 3 x 20 μg sc on aluminium hydroxide, after four re-stimulations
# Description: Groups of C57BL/6 mice are immunised subcutaneously (20 μg) with the peptide of example 1 which contains the modified sequence motif [SEQ ID NO: 1] or control peptide [SEQ ID NO: 2, 4 or 7] adsorbed onto aluminium hydroxide. Three injections are performed at 2-week intervals. Ten days after the last immunisation, mice are sacrificed and CD4+ T cells (2×10^6 cells) are prepared from the spleen using magnetic beads. CD4+ T cells are then stimulated in vitro by the MOG T cell epitope (20 μg/ml) presented by adherent spleen cells (2×10^6 cells).
# After four re-stimulations, a T cell line is tested in a bystander suppression assay with, as target cells, polyclonal CD4^+CD25^− cells obtained from animals in which EAE (Experimental autoimmune encephalomyelitis) is effective.
CD4 polymerisation (Human recombinant CD4),Reductase activity (%) [1],Substance,capacity to induce death in target cells [2]
+,13%,AHACPYCVRSLQPLALEGSLQKRG (proinsulin) [SEQ ID NO: 110],
+,64%,AAHCHPCVRSLQPLALEGSLQKRG (proinsulin) [SEQ ID NO: 113],
+,6%,"AAACPYCVRSLQPLALEGSLQKRG (proinsulin) [SEQ ID NO: 111, reference compound]",
+,0%,HAACPYCVRSLQPLALEGSLQKRG (proinsulin) [SEQ ID NO: 109],
,,"CPYCSRVVHLYRNGKD (CPYCSRVVHLYRNGKD-NH2; cysteine pairing not given here) [SEQ ID NO: 7, reference compound]",have the capacity to induce death in target cells
+,68%,H CPYCVRSLQPLALEGSLQKRG (HCPYCVRSLQPLALEGSLQKRG; proinsulin) [SEQ ID NO: 108],
low,22%,"AAACHGCVRSLQPLALEGSLQKRG (proinsulin) [SEQ ID NO: 114, reference compound]",
,,HCPYCSRVVHLYRNGKD [SEQ ID NO: 1],have the capacity to induce death in target cells
+,75%,"AAACHPCVRSLQPLALEGSLQKRG (proinsulin) [SEQ ID NO: 112, reference compound]",
